Where a name gives a salt, the structure may show the parent alone. Read-outs that look alike come from different tables or passages of the source.
Tests used:
Test in all cases: In Vitro Anti-Bacterial Activity Test (MIC, agar dilution)
Assay type in all cases: cell-based
[1] = system: Staphylococcus aureus 503; conditions: Staphylococcus aureus 503; Muller-Hinton agar, 37° C., 18 hours; read-out: MIC
Method: (§1) The above in vitro antibacterial activity test was carried out in accordance with the agar culture medium dilution method (Hoechst 345) by using Muller-Hinton agar medium to determine the minimum inhibitory concentration (MIC).
(§2) The strains having 10^7 C.F.U./ml were inoculated on the culture medium, and the growth of the strains was observed after incubating them at 37° C. for 18 hours, in which ciprofloxacin was used as a control antibacterial agent. In this test, twenty typical strains were used.

[2] = system: Staphylococcus aureus SG511; conditions: Staphylococcus aureus SG511; Muller-Hinton agar, 37° C., 18 hours; read-out: MIC
Method: as §1, §2

[3] = system: Klebsiella aerogenes 1522E; conditions: Klebsiella aerogenes 1522E, Muller-Hinton agar, 37° C., 18 hours
Method: as §1, §2

[4] = system: Klebsiella oxytoca 1082E; conditions: Klebsiella oxytoca 1082E; Muller-Hinton agar, 37° C., 18 hours; read-out: MIC
Method: as §1, §2

[5] = system: Escherichia coli DC0; conditions: Muller-Hinton agar, 37° C., 18 hours, read-out: MIC
Method: as §1, §2

[6] = system: Streptococcus pyogenes 77A
Method: as §1, §2

[7] = system: Streptococcus faecium MD8b; conditions: Enterococcus faecium, Muller-Hinton agar, 37° C., 18 hours, read-out: MIC
Method: as §1, §2

[8] = system: Escherichia coli TEM; conditions: Muller-Hinton agar, 37° C.
Method: as §1, §2

[9] = system: Pseudomonas aeruginosa 1592E; conditions: Muller-Hinton agar, 37° C., 18 hours, read-out: MIC
Method: as §1, §2

[10] = system: Escherichia coli 1507E; conditions: Muller-Hinton agar, 37° C.
Method: as §1, §2

[11] = system: Salmonella typhimurium; conditions: Salmonella enterica
Method: as §1, §2

[12] = system: Enterobacter cloacae P99; conditions: Enterobacter cloacae, P99, 18 h
Method: as §1, §2

[13] = system: Pseudomonas aeruginosa 9027; conditions: Muller-Hinton agar, 37° C., 18 hours, read-out: MIC
Method: as §1, §2

[14] = system: Pseudomonas aeruginosa 1771M; conditions: Muller-Hinton agar, 37° C.
Method: as §1, §2

[15] = system: Streptococcus pyogenes 308A; conditions: Muller-Hinton agar, 37° C., 18 hours, read-out: MIC
Method: as §1, §2

[16] = system: Pseudomonas aeruginosa 1771; conditions: Pseudomonas aeruginosa 1771; Muller-Hinton agar, 37° C., 18 hours; read-out: MIC
Method: as §1, §2

[17] = system: Enterobacter cloacae 1321E; conditions: Enterobacter cloacae 1321E; Muller-Hinton agar, 37° C., 18 hours; read-out: MIC
Method: as §1, §2

[18] = system: Escherichia coli 078
Method: as §1, §2

[19] = system: Escherichia coli DC2
Method: as §1, §2

[20] = system: Staphylococcus aureus 285; conditions: Staphylococcus aureus 285, Muller-Hinton agar, 37° C., 18 hours
Method: as §1, §2

[21] = Klebsiella aerogenes, 1522E, 18 h, read-out: MIC
[22] = Streptococcus pyogenes 77A, Muller-Hinton agar, 37° C., 18 hours, read-out: MIC
[23] = Pseudomonas aeruginosa, 1771M, 18 h
[24] = Staphylococcus aureus, 285, 18 h, read-out: MIC
[25] = Salmonella typhimurium, Muller-Hinton agar, 37° C., 18 hours, read-out: MIC
[26] = Escherichia coli 078, Muller-Hinton agar, 37° C., 18 hours, read-out: MIC

SMILES | MIC [1] | MIC [2] | MIC [3, 21] | MIC [4] | MIC [5] | MIC [6, 22] | MIC [7] | MIC ([8]; Escherichia coli, 18 h) | MIC [9] | MIC ([10]; Escherichia coli, 1507E, 18 h) | MIC [12] | MIC [13] | MIC [14, 23] | MIC [15] | MIC [16] | MIC [17] | MIC ([18]; Escherichia coli, 078, 18 h) | MIC [20, 24] | MIC [11, 25] | MIC ([19]; Escherichia coli, DC2, 18 h) | also measured
CCOC(=O)C(C#N)C(=O)c1cn(C2CC2)c2c(Cl)c(N3CCC(N)C3)c(F)cc2c1=O (centres unmarked) [Example 39, 1-cyclopropyl-6-fluoro-8-chloro-7-(3-aminopyrrolidin-1-yl)-3-(2-cyano-2-ethoxycarbonylacetyl)-1,4-dihydro-4-oxoquinoline hydrochloride] | 1.56 µg/mL | 1.56 µg/mL | 0.781 µg/mL | 0.049 µg/mL | 6.25 µg/mL | 6.25 µg/mL | 6.25 µg/mL | 0.391 µg/mL | 12.5 µg/mL | 0.781 µg/mL | 0.391 µg/mL | 12.5 µg/mL | 3.12 µg/mL | 25 µg/mL | 12.5 µg/mL | 0.049 µg/mL | 0.049 µg/mL | 1.56 µg/mL |  |  | MIC ([11]; TYPHIMURIUM, 18 h): 0.391 µg/mL; MIC ([19]; Escherichia coli DC2, Muller-Hinton agar, 37° C., 18 hours, read-out: MIC): 3.12 µg/mL
O=C(C[N+](=O)[O-])c1cn(C2CC2)c2cc(N3CCNCC3)c(F)cc2c1=O [Example 5, 1-cyclopropyl-6-fluoro-7-(piperazin-1-yl)-3-(2-nitroacetyl)-1,4-dihydro-4-oxoquinoline trifluoroacetate] |  |  |  |  |  |  |  |  |  |  |  |  |  |  |  |  |  |  |  |  | MIC ([3]; trifluoroacetate): 0.025 µg/mL; MIC ([8]; 18 hours, trifluoroacetate): 0.007 µg/mL; MIC ([10]; 18 hours, read-out: MIC): 0.013 µg/mL; MIC ([14]; 18 hours, trifluoroacetate): 0.049 µg/mL; MIC ([20]; trifluoroacetate): 0.195 µg/mL
CCOC(=O)C(C(=O)OCC)C(=O)c1cn(C2CC2)c2c(Cl)c(N3CC[C@H](NC)C3)c(F)cc2c1=O [Example 56, 1-cyclopropyl-6-fluoro-8-chloro-7-(3-3S-methylaminopyrrolidin-1-yl)-3-(2,2-diethoxycarbonylacetyl)-1,4-dihydro-4-oxoquinoline hydrochloride] | 0.098 µg/mL | 0.049 µg/mL | 0.049 µg/mL | 0.013 µg/mL | 0.195 µg/mL | 0.195 µg/mL | 0.195 µg/mL | 0.013 µg/mL | 0.391 µg/mL | 0.013 µg/mL | 0.013 µg/mL | 0.781 µg/mL | 0.098 µg/mL | 0.781 µg/mL | 0.391 µg/mL | 0.049 µg/mL | 0.007 µg/mL | 0.098 µg/mL | 0.007 µg/mL | 0.049 µg/mL | 
CCOC(=O)C(C(=O)OCC)C(=O)c1cn(C2CC2)c2c(Cl)c(N3CC[C@@H](NC)C3)c(F)cc2c1=O [Example 55, 1-cyclopropyl-6-fluoro-8-chloro-7-(3-3R-methylaminopyrrolidin-1-yl)-3-(2,2-diethoxycarbonylacetyl)-1,4-dihydro-4-oxoquinoline hydrochloride] | 0.195 µg/mL | 0.098 µg/mL | 0.049 µg/mL | 0.025 µg/mL | 0.391 µg/mL | 0.391 µg/mL | 0.391 µg/mL | 0.025 µg/mL | 0.391 µg/mL | 0.025 µg/mL | 0.025 µg/mL | 1.56 µg/mL | 0.195 µg/mL | 1.56 µg/mL | 0.391 µg/mL | 0.049 µg/mL | 0.013 µg/mL | 0.195 µg/mL | 0.013 µg/mL | 0.098 µg/mL | 
CCOC(=O)CC(=O)c1cn(C2CC2)c2c(Cl)c(N3CC[C@H](N)C3)c(F)cc2c1=O [Example 27, 1-cyclopropyl-6-fluoro-8-chloro-7-(3-3S-aminopyrrolidin-1-yl)-3-(2-ethoxycarbonylacetyl)-1,4-dihydro-4-oxoquinoline hydrochloride] | 0.049 µg/mL | 0.098 µg/mL | 0.013 µg/mL | < 0.002 µg/mL | 0.098 µg/mL | 0.391 µg/mL | 0.391 µg/mL | < 0.002 µg/mL | 0.195 µg/mL | 0.013 µg/mL | 0.004 µg/mL | 0.391 µg/mL | 0.098 µg/mL | 0.781 µg/mL | 0.195 µg/mL | < 0.002 µg/mL |  | 0.049 µg/mL | < 0.002 µg/mL | 0.013 µg/mL | MIC [18, 26]: 0.004 µg/mL
CNCC1=CCN(c2c(F)cc3c(=O)c(C(=O)C[N+](=O)[O-])cn(C4CC4)c3c2F)C1 [Example 15, 1-cyclopropyl-6,8-difluoro-7-(3-methylaminomethyl-2,5-dihydropyrrol-1-yl)-3-(2-nitroacetyl)-1,4-dihydro-4-oxoquinoline hydrochloride] | < 0.002 µg/mL | < 0.002 µg/mL | 0.013 µg/mL | < 0.002 µg/mL | 0.098 µg/mL | 0.025 µg/mL | 0.025 µg/mL | 0.004 µg/mL | 0.391 µg/mL | 0.007 µg/mL | 0.004 µg/mL | 0.781 µg/mL | 0.195 µg/mL | 0.049 µg/mL | 0.391 µg/mL | < 0.002 µg/mL |  | 0.004 µg/mL | < 0.002 µg/mL | 0.013 µg/mL | MIC [18, 26]: < 0.002 µg/mL
CC(=O)CC(=O)c1cn(C2CC2)c2c(Cl)c(N3CCC(N)C3)c(F)cc2c1=O (centres unmarked) [Example 37, 1-cyclopropyl-6-fluoro-8-chloro-7-(3-aminopyrrolidin-1-yl)-3-(2-acetoacetyl)-1,4-dihydro-4-oxoquinoline hydrochloride] | 0.781 µg/mL | 0.781 µg/mL | 0.391 µg/mL | 0.195 µg/mL | 0.781 µg/mL | 3.12 µg/mL | 3.12 µg/mL | 0.098 µg/mL | 3.12 µg/mL | 0.195 µg/mL | 0.195 µg/mL | 1.56 µg/mL | 0.781 µg/mL | 1.56 µg/mL | 1.56 µg/mL | 0.195 µg/mL | 0.391 µg/mL | 0.781 µg/mL | 0.195 µg/mL | 0.391 µg/mL | 
CCOC(=O)C(C(=O)OCC)C(=O)c1cn(C2CC2)c2c(Cl)c(N3CC4=C(CNC4)C3)c(F)cc2c1=O [Example 36, 1-cyclopropyl-6-fluoro-8-chloro-7-(3,7-diazabicyclo[3.3.0]oct-1,5-en-3-yl)-3-(2,2-diethoxycarbonylacetyl)-1,4-dihydro-4-oxoquinoline hydrochloride] | 0.049 µg/mL | 0.025 µg/mL | 0.025 µg/mL | 0.007 µg/mL | 0.195 µg/mL | 0.098 µg/mL | 0.195 µg/mL | 0.025 µg/mL | 0.781 µg/mL | 0.025 µg/mL | 0.025 µg/mL | 1.56 µg/mL | 0.195 µg/mL | 0.391 µg/mL | 0.781 µg/mL | 0.025 µg/mL | 0.007 µg/mL | 0.049 µg/mL | 0.025 µg/mL | 0.049 µg/mL | 
CCOC(=O)C(C(=O)OCC)C(=O)c1cn(C2CC2)c2c(OC)c(N3CC[C@H](NC)C3)c(F)cc2c1=O [Example 59, 1-cyclopropyl-6-fluoro-8-methoxy-7-(3-3S-methylaminopyrrolidin-1-yl)-3-(2,2-diethoxycarbonylacetyl)-1,4-dihydro-4-oxoquinoline hydrochloride] | 0.098 µg/mL | 0.098 µg/mL | 0.098 µg/mL | 0.007 µg/mL | 0.781 µg/mL |  | 0.781 µg/mL | 0.049 µg/mL |  | 0.391 µg/mL | 0.049 µg/mL | 1.56 µg/mL | 0.781 µg/mL | 0.781 µg/mL | 1.56 µg/mL | 0.049 µg/mL | 0.049 µg/mL | 0.098 µg/mL | 0.049 µg/mL | 0.098 µg/mL | MIC ([6]; Streptococcus pyogenes, 77A, 18 h): 0.781 µg/mL

— patent US5409933A, “Quinoline derivatives and processes for preparing the same” (priority 1993, dated 1995)
